The text below walks through data of US20110092463A1, “COMBINATION FOR USE IN THE TREATMENT OF INFLAMMATORY DISORDERS” (priority 2008, published 2011).

The assay relates to human macrophage cell-line MonoMac-6 (MM6). The assay is described as follows: PMA-induced release of tumor necrosis factor (TNF) from MonoMac-6 cells, Human TNF-α ELISA. In kind it is cell-based. The note with it: n=2; for TNF concentration as % of the untreated PMA-stimulated control MM6 cells: 48 hours, PMA 10 ng/mL five hours, mean; for mean TNF concentration after PMA stimulation: 48 hours treatment, then PMA 10 ng/mL five hours, untreated control 75.3 pg/mL. Here is the method: Cells from the human macrophage cell-line MonoMac-6 (MM6) (Ziegler-Heitbrock et al, Int. J. Cancer, 41, 456 (1988)) were cultured (37° C./5% CO2) in RPMI-1640 medium supplemented with 1 mM sodium pyruvate, 1× nonessential amino acids, 10 μg/mL insulin, 1 mM oxalacetic acid, 100 units/mL penicillin, 100 μg/mL streptomycin and 10% (v/v) fetal bovine serum. At the start of the experiment, MM6 cells were seeded in 96-well plates at a density of 1×10^5 cells/mL (200 μL per well). The MM6 cells were treated (incubation conditions as above) with indicated final concentrations of the test drugs for 48 hours prior stimulation with phorbol-12-myristate-13-acetate (PMA; Sigma-Aldrich, Stockholm, Sweden) followed by measurement of PMA-induced release of tumor necrosis factor (TNF) (see below for details). To stimulate formation and release of TNF, the MM6 cells were incubated (37° C./5% CO2) for five hours (in RPMI-1640 with 10% fetal bovine serum with supplements as above) with PMA at a final concentration of 10 ng/mL. After spinning down the cells after the different MM6 incubations/stimulations (see above and below), the concentrations of TNF in the supernatants were quantitated using Human TNF-α ELISA Kit from Mabtech (Nacka, Sweden) according to instructions supplied by the manufacturer. Stock solutions of pemirolast (potassium salt; purchased from American Custom Chemicals Corporation, San Diego, USA) and losartan (potassium salt; purchased from AK Scientific, Inc., Mountain View, Calif., USA) were made in sterile saline. […] However, after five hours of PMA stimulation, the mean TNF concentration in the supernatants of untreated MM6 cells was 75.3 pg/mL (n=2).
For orientation: In an ELISA, binding on a coated surface is turned into a signal by an enzyme label.

Setting [1] is: 0.1 μM of each drug (alone or in combination).
[2] abbreviates: 1 μM of each drug (alone or in combination).
Setting [3] is: 10 μM of each drug (alone or in combination).
Setting [4] is: 100 μM of each drug (alone or in combination).

`CCCCc1nc(Cl)c(CO)n1Cc1ccc(-c2ccccc2-c2nn[nH]n2)cc1` [losartan]: the “TNF concentration as % of the untreated PMA-stimulated control MM6 cells” value was determined as 98% under setting [1], 90% under setting [2], 99% under setting [3] and 119% under setting [4]. The “mean TNF concentration after PMA stimulation” value by setting is: (0.1 μM test drug) 73.8 pg/mL; (1 μM test drug) 67.5 pg/mL; (10 μM test drug) 74.5 pg/mL; (100 μM test drug) 89.8 pg/mL.

In the case of `Cc1cccn2c(=O)c(-c3nnn[nH]3)cnc12` [pemirolast], the “TNF concentration as % of the untreated PMA-stimulated control MM6 cells” value is listed as 88% under setting [1], 85% under setting [2], 72% under setting [3] and 96% under setting [4]. Also, the “mean TNF concentration after PMA stimulation” value by setting is: (0.1 μM test drug) 66.5 pg/mL; (1 μM test drug) 64.0 pg/mL; (10 μM test drug) 54.3 pg/mL; (100 μM test drug) 72.2 pg/mL.
